Experimental data from patent US7326710B2, “Aralkyl formyl-alkyl piperazine derivatives and their uses as a cerebral nerve protective agent” (Shanghai Institute of Pharmaceutical Industry, priority 2002, dated 2008).
Where two headings read alike, the source gives them in different places.

Columns and labels:
NMDA receptor = test: Maximum contraction of isolated guinea pig longitudinal ileum muscle preparations induced by L-Glu; details: for excitation: concentration, direct excitation of the preparation; for Glu-like excited action: excite preparations directly and induce contraction; for antagonism % (restrain rate of contraction of preparations): compound 10^−5M, contraction induced by L-Glu
Source text: According to the literature (Luzzi, Br J Pharmacol, 95:1271, 1988), maximum contraction of isolated longitudinal ileomuscle preparations of guinea pig induced by L-Glu, were used to examine the activities of the compounds on the NMDA receptor.

[1] = tested on: anoxia induced by sodium nitrite in mice; test: Anti-cerebral anoxia in mice, anoxia induced by sodium nitrite; type: in vivo; details: sodium nitrite 225 mg/kg ip, compound 20 mg/kg sc; for ILS at 20 mg/kg: Mus musculus, sc
Procedure: The rates of the prolongation of 9 compounds (IV-2, 10, 23, 32, 34, 36, 39, 40, 41) were more than 50%, which indicated the effect of anti-cerebral anoxia. IV-23 and IV-2 prolonged the survival duration by 100% of the animals, showing remarkably protective action for cerebral anoxia. (Table 3)
One model was established to test the time needed for mice to die because of anoxia caused by sodium nitrite (225 mg/kg, ip). IV-23 (20 mg/kg, sc) can prolong the time for 100%, indicating significant anti-cerebral anoxic anoxia activity.

[2] = tested on: focal cerebral ischemia in rats; test: Focal cerebral ischemia in rats by occlusion of middle cerebral artery (MCA); type: in vivo; details: 20 mg/kg p.o.; for Neurological deficit 24 h: 24 h after operation
Procedure: The focal ischemia rat model by occlusion of middle cerebral artery (MCA) was used to determine the protective effects of the compounds on focal cerebral ischemia. The infarct size after focal cerebral ischemia and the weight percentage of cerebral hemisphere were calculated to evaluate the compounds' effects on focal cerebral ischemia.

[3] = mice, read-out: Prolonging the survival duration (%)
[4] = read-out: Prolonging the survival duration (%), mice

Question: How did the excitation (NMDA receptor; unit not given) turn out when `O=C(CN1CCN(C(=O)c2ccccc2)CC1)c1ccccc1` [IV-1, N^1-benzoyl-N^4-phenacyl-piperazine] was run?
Answer: 3 × 10^−6

Question: And the Glu-like excited action (NMDA receptor)?
Answer: could excite preparations directly

Question: And the ILS at 20 mg/kg [1, 3]?
Answer: 3%

Question: `O=C(CN1CCN(CC(=O)c2ccccc2)CC1)c1ccccc1` [IV-2, N^1,N^4-diphenacyl-piperazine] was tested. Which “antagonism % (restrain rate of contraction of preparations)” value (NMDA receptor) did it give?
Answer: 25%

Question: With `O=C(CN1CCN(C(=O)c2ccc([N+](=O)[O-])cc2)CC1)c1ccccc1` [IV-3, N^1-(4-nitrobenzoyl)-N^4-phenacyl-piperazine] as the molecule, how does the “antagonism % (restrain rate of contraction of preparations)” value (NMDA receptor) read?
Answer: 37%

Question: What about the ILS at 20 mg/kg [1, 3] of the same molecule?
Answer: 7%

Question: Which results are given for `O=C(CN1CCN(CC(=O)c2ccc(Cl)cc2)CC1)c1ccccc1` [IV-5, N^1-phenacyl-N^4-(4-chlorophenacyl) piperazine]?
Answer: antagonism % (restrain rate of contraction of preparations) (NMDA receptor): 30%; ILS at 20 mg/kg [1, 3]: 22%

Question: For `O=C(CN1CCN(CC(=O)c2ccc(Cl)cc2)CC1)c1ccc(Cl)cc1` [IV-6, N^1,N^4-di (4-chlorophenacyl) piperazine], which “antagonism % (restrain rate of contraction of preparations)” value (NMDA receptor) is on record?
Answer: 25%

Question: And the ILS at 20 mg/kg [1, 3]?
Answer: 4%

Question: `O=C(CN1CCN(CC(=O)c2ccc3ccccc3c2)CC1)c1ccccc1` [IV-7, N^1-(2-naphthoylmethyl)-N^4-phenacyl-piperazine] was tested. Which “antagonism % (restrain rate of contraction of preparations)” value (NMDA receptor) did it give?
Answer: 25%

Question: And the ILS at 20 mg/kg [1, 3]?
Answer: 21%

Question: Which “antagonism % (restrain rate of contraction of preparations)” value (NMDA receptor) does the source give for `CC(C(=O)c1ccccc1)N1CCN(CC(=O)c2ccccc2)CC1` (stereo not drawn) [IV-8, N^1-(1-benzoylethyl)-N^4-phenacyl-piperazine] here?
Answer: 25%

Question: And the “Prolonging the survival duration (%)” value ([1]; mice)?
Answer: 21%

Question: How did the excitation (NMDA receptor; unit not given) turn out when `COc1ccc(C(=O)CN2CCN(CC(=O)c3ccccc3)CC2)cc1` [IV-9, N^1-phenacyl-N^4-(4-methoxyphenacyl) piperazine] was run?
Answer: 10^−5

Question: What about the Glu-like excited action (NMDA receptor) of the same molecule?
Answer: could excite preparations directly

Question: And the ILS at 20 mg/kg [1, 3]?
Answer: 30%

Question: What does the source list for `CC(C(=O)c1ccccc1)N1CCN(C(C)C(=O)c2ccccc2)CC1` (stereo not drawn) [IV-10, N^1,N^4-di (1-benzoylethyl) piperazine]?
Answer: excitation (NMDA receptor; unit not given): 10^−5; Glu-like excited action (NMDA receptor): could excite preparations directly; ILS at 20 mg/kg [1, 4]: > 50%

Question: For `O=C(CN1CCN(CC(=O)c2ccc([N+](=O)[O-])cc2)CC1)c1ccccc1` [IV-11, N^1-phenacyl-N^4-(4-nitrophenacyl) piperazine], which excitation (NMDA receptor; unit not given) is on record?
Answer: 10^−5

Question: What about the Glu-like excited action (NMDA receptor) of the same molecule?
Answer: could excite preparations directly

Question: What about the ILS at 20 mg/kg [1, 3] of the same molecule?
Answer: 2%

Question: For `CC(C(=O)c1ccccc1)N1CCN(CC(=O)c2ccccc2)CC1` (stereo not drawn) [IV-13, N^1-(1-benzoylethyl)-N^4-phenacyl-piperazine], which ILS at 20 mg/kg [1, 4] is on record?
Answer: 32%

Question: `COc1ccc(C(=O)CN2CCN(C(=O)Cc3ccccc3O)CC2)cc1` [IV-16, N^1-(4-methoxyphenacyl)-N^4-[(2-hydroxy)phenylacetyl] piperazine] was tested. Which ILS at 20 mg/kg [1, 4] did it give?
Answer: 30%

Question: Which ILS at 20 mg/kg [1, 4] does the source give for `CC(C(=O)c1ccccc1)N1CCN(C(=O)C(O)c2ccc(Cl)cc2)CC1` (stereo not drawn) [IV-17, N^1-(1-benzoylethyl)-N^4-[2-hydroxy-2-(4-chlorophenyl)acetyl] piperazine] here?
Answer: 14%

Question: Which ILS at 20 mg/kg [1, 4] does the source give for `CC(C(=O)c1ccccc1)N1CCN(C(=O)Cc2ccccc2O)CC1` (stereo not drawn) [IV-18, N^1-(1-benzoylethyl)-N^4-[(2-hydroxy)phenylacetyl] piperazine] here?
Answer: 25%

Question: With `O=C(CN1CCN(C(=O)C(O)c2ccc(Cl)cc2)CC1)c1ccccc1` (stereo not drawn) [IV-19, N^1-phenacyl-N^4-[2-hydroxy-2-(4-chlorophenyl)acetyl] piperazine] as the molecule, how does the ILS at 20 mg/kg [1, 3] read?
Answer: 18%

Question: For `COc1ccc2cc(C(=O)C(C)N3CCN(CC(=O)c4ccccc4)CC3)ccc2c1Cl` (stereo not drawn) [IV-20, N^1-phenacyl-N^4-[1-(5-chloro-6-methoxy-2-naphthoyl)ethyl]piperazine], which “Infarct volume” value [2] is on record?
Answer: 0.14 ± 0.04 g

Question: What about the “Neurological deficit After operation” value [2] of the same molecule?
Answer: 9.5 ± 0.6

Question: And the “Percentage of infarct volume (%)” value [2]?
Answer: 18.80 ± 5.61 %

Question: What about the “Neurological deficit 24 h” value [2] of the same molecule?
Answer: 8.8 ± 1.3

Question: Which ILS at 20 mg/kg [1, 3] does the source give for `O=C(CN1CCN(CC=Cc2ccccc2)CC1)NCc1ccccc1` [IV-21, N1-[2-(benzylamino)-2-oxo-ethyl]-N^4-cinnamyl piperazine] here?
Answer: 33%

Question: What about the “Infarct volume” value [2] of the same molecule?
Answer: 0.12 ± 0.07 g

Question: And the “Neurological deficit After operation” value [2]?
Answer: 9.8 ± 0.5

Question: What about the “Percentage of infarct volume (%)” value [2] of the same molecule?
Answer: 15.53 ± 8.27 %

Question: What about the “Neurological deficit 24 h” value [2] of the same molecule?
Answer: 6.8 ± 2.5

Question: `O=C(CN1CCN(CC(=O)c2ccccc2)CC1)Nc1ccccc1` [IV-24, N^1-phenacyl-N^4-[2-(phenylamino)-2-oxo-ethyl] piperazine] was tested. Which ILS at 20 mg/kg [1, 3] did it give?
Answer: 34%

Question: `O=C(CN1CCN(CC(=O)NCc2ccccc2)CC1)NCc1ccccc1` [IV-25, N^1,N^4-di[2-(benzylamino)-2-oxo-ethyl] piperazine] was tested. Which ILS at 20 mg/kg [1, 3] did it give?
Answer: 30%

Question: For `CC(C(=O)c1ccccc1)N1CCN(CC(=O)NCc2ccccc2)CC1` (stereo not drawn) [IV-26, N^1-(1-benzoylethyl)-N^4-[2-(benzylamino)-2-oxo-ethyl] piperazine], which ILS at 20 mg/kg [1, 4] is on record?
Answer: 36%

Question: Which ILS at 20 mg/kg [1, 3] does the source give for `O=C(CN1CCN(CC(=O)c2ccccc2)CC1)NCc1ccc2c(c1)OCO2` [IV-32, N^1-phenacyl-N^4-[2-(3,4-methylenedioxybenzylamino)-2-oxo-ethyl] piperazine] here?
Answer: > 50%

Question: What does the source list for `COc1ccc2cc(C(=O)C(C)N3CCN(CC(=O)NCc4ccccc4)CC3)ccc2c1Cl` (stereo not drawn) [IV-33, N^1-[1-(5-chloro-6-methoxy-2-naphthoyl)ethyl]-N^4-[2-(benzylamino)-2-oxo-ethyl] piperazine]?
Answer: Infarct volume [2]: 0.12 ± 0.04 g; Neurological deficit After operation [2]: 9.6 ± 0.6; Neurological deficit 24 h [2]: 8.4 ± 1.5

Question: With `O=C(c1ccccc1)N1CCN(CC(O)c2ccccc2)CC1` (stereo not drawn) [IV-34, N^1-benzoyl-N^4-(2-phenylethyl-2-ol) piperazine] as the molecule, how does the “antagonism % (restrain rate of contraction of preparations)” value (NMDA receptor) read?
Answer: 25%

Question: With `O=C(c1ccc([N+](=O)[O-])cc1)N1CCN(CC(O)c2ccccc2)CC1` (stereo not drawn) [IV-35, N^1-(4-nitrobenzoyl)-N^4-(2-phenylethyl-2-ol) piperazine] as the molecule, how does the excitation (NMDA receptor; unit not given) read?
Answer: 3 × 10^−5

Question: And the Glu-like excited action (NMDA receptor)?
Answer: could excite preparations directly

Question: What about the “Prolonging the survival duration (%)” value ([1]; mice) of the same molecule?
Answer: 42%

Question: How did the “Prolonging the survival duration (%)” value ([1]; mice) turn out when `O=C(CN1CCN(CC(O)c2ccccc2)CC1)NCc1ccccc1` (stereo not drawn) [IV-37, N^1-[2-(benzylamino)-2-oxo-ethyl]-N^4-(2-phenylethyl-2-ol) piperazine] was run?
Answer: 13%

Question: Which “Prolonging the survival duration (%)” value ([1]; mice) does the source give for `CC(C(=O)c1ccccc1)N1CCN(C(=O)[C@@H](O)c2ccccc2)CC1` (stereo partly drawn) [IV-44, N^1-(S-2-hydroxy-1-oxo-2-phenylethyl)-N^4-(1-benzoylethyl) piperazine] here?
Answer: 3%

Question: With `N#Cc1cccc(CS(=O)(=O)N2CCN(CC(=O)c3ccccc3)CC2)c1` [IV-48, N^1-phenacyl-N^4-(3-cyanophenylmethylsulfonyl) piperazine] as the molecule, how does the ILS at 20 mg/kg [1, 3] read?
Answer: 16%

Question: With `COc1ccc2cc(C(=O)C(C)N3CCN(CC(=O)NC(C)c4ccccc4)CC3)ccc2c1Cl` (stereo not drawn) [IV-49, N^1-[1-(5-chloro-6-methoxy-2-naphthoyl)ethyl]-N^4-[2-(1-phenylethanamino)-2-oxo-ethyl] piperazine] as the molecule, how does the “Prolonging the survival duration (%)” value ([1]; mice) read?
Answer: 30%

Question: How did the ILS at 20 mg/kg [1, 3] turn out when `O=C(CN1CCN(S(=O)(=O)Cc2ccc(Oc3ccccc3)cc2)CC1)c1ccccc1` [IV-53, N^1-phenacyl-N^4-(4-phenoxybenzylsulfonyl) piperazine] was run?
Answer: 15%

Question: How did the ILS at 20 mg/kg [1, 3] turn out when `O=C(CN1CCN(S(=O)(=O)Cc2ccccc2CS(=O)(=O)c2ccccc2)CC1)c1ccccc1` [IV-54, N^1-phenacyl-N^4-[2-(benzenesulfonylmethyl)benzylsulfonyl] piperazine] was run?
Answer: 25%

Question: How did the ILS at 20 mg/kg [1, 3] turn out when `O=C(CN1CCN(S(=O)(=O)Cc2ccc(C(F)(F)F)cc2)CC1)c1ccccc1` [IV-55, N^1-phenacyl-N^4-(4-trifluoromethylbenzylsulfonyl) piperazine] was run?
Answer: 4%

Question: `O=C(CN1CCN(S(=O)(=O)Cc2ccc(-c3ccccc3)cc2)CC1)c1ccccc1` [IV-56, N^1-phenacyl-N^4-(4-phenylbenzylsulfonyl) piperazine] was tested. Which ILS at 20 mg/kg [1, 3] did it give?
Answer: 25%

Question: Which ILS at 20 mg/kg [1, 3] does the source give for `N#Cc1ccccc1-c1ccc(CS(=O)(=O)N2CCN(CC(=O)c3ccccc3)CC2)cc1` [IV-58, N^1-phenacyl-N^4-[4-(2-cyanophenyl)benzylsulfonyl] piperazine] here?
Answer: 25%

Question: `N#Cc1ccccc1-c1ccc(CS(=O)(=O)N2CCN(CC(=O)NCc3ccccc3)CC2)cc1` [IV-61, N^1-[2-(benzylamino)-2-oxo-ethyl]-N^4-[4-(2-cyanophenyl)benzylsulfonyl] piperazine] was tested. Which ILS at 20 mg/kg [1, 3] did it give?
Answer: 22%

Question: Which ILS at 20 mg/kg [1, 3] does the source give for `O=C(CN1CCN(S(=O)(=O)Cc2ccccc2CS(=O)(=O)c2ccccc2)CC1)NCc1ccccc1` [IV-62, N^1-[2-(benzylamino)-2-oxo-ethyl]-N^4-[2-(benzenesulfonylmethyl)benzylsulfonyl] piperazine] here?
Answer: 36%

Question: With `O=C(CN1CCN(S(=O)(=O)Cc2ccc([N+](=O)[O-])cc2)CC1)NCc1ccccc1` [IV-64, N^1-[2-(benzylamino)-2-oxo-ethyl]-N^4-(4-nitrobenzylsulfonyl) piperazine] as the molecule, how does the ILS at 20 mg/kg [1, 3] read?
Answer: 20%

Question: With `CC(C(O)c1ccc(O)cc1)N1CCC(Cc2ccccc2)CC1` (stereo not drawn) [Ifenprodil, reference compound] as the molecule, how does the “antagonism % (restrain rate of contraction of preparations)” value (NMDA receptor) read?
Answer: 41%(10^−5)

Question: For `CNC1(c2ccccc2Cl)CCCCC1=O` (stereo not drawn) [Ket, Ketamine, reference compound], which “antagonism (value printed as a concentration in the antagonism % column)” value (NMDA receptor; positive control, unit not given) is on record?
Answer: 5.61 × 10^−7

Question: Which excitation (NMDA receptor; unit not given) does the source give for `N[C@@H](CCC(=O)O)C(=O)O` [L-Glu, reference compound] here?
Answer: 3.89 × 10^−5
